Where two headings read alike, the source gives them in different places.
What was measured:
[1] = rat microsomal stability (RLM); settings: for half-life: rat, rat liver microsomes
[2] = PAMPA permeability; settings: PAMPA
[3] = target: T1, hGALK1m (Homo sapiens, UniProt P51570, E253A/K252A); experiment: in vitro hGALK1 activity assay of the structure-based optimisation (Example 12, Tables 17-20); assay type: biochemical
T1 construct: made in house; host or cells: E. coli HMS174
Protocol: In vitro hGALK1 activity assays were performed as previously described. Liu et al., Bioorg. Med. Chem. Lett. 25(3): 721-727 (2015), which is incorporated by reference herein for the specific teachings thereof. The biochemical assay was performed by coupling the activity of recombinant human or mouse GALK1 to the Kinase-Glo Plus luminescent ATP detection kit, using ATP depletion as a measure of GALK1 turnover. Specifically, three μL/well of ATP substrate solution (35 μM ATP) in assay buffer (20 mM HEPES pH 8.0, 5 mM MgCl2, 60 mM NaCl, 1 mM DTT, 0.01% BSA final concentration) was dispensed into 1536-well assay plates (Greiner, white solid-bottom medium-binding plates). Aliquots of compound (23 nL solubilized in DMSO) were transferred to the assay plates using a Kalypsys 1536-well pintool such that 11 concentrations with 1/3 dilutions ranging from 57.4 μM-0.97 nM are tested. One μL/well of GALK-galactose solution (5 nM GALK1, 100 μM galactose) in assay buffer was then added, yielding a final reaction volume of 4 μL/well. Following a 1-hour room temperature incubation, 4 μL of Kinase-Glo Plus detection reagent was added to provide an ATP-dependent luminescent readout (final assay volume: 8 μL/well). Luminescence was detected using a ViewLux plate reader (PerkinElmer) after a 10-minute incubation, using a 1 second exposure time and 2× binning.
The in vitro hGALK1 activity assay was performed as previously described. Liu et al., Bioorg. Med. Chem. Lett. 25(3): 721-727 (2015). For the measurement of cellular Gal-1P reduction, compounds at different concentrations were added to cultured patient fibroblast at 80% confluency. After incubating the compounds for 16 hours, 10 mM galactose was added to the culture. After another 4 hours, cells were washed with cold PBS buffer 3× and harvested for gal-1P measurement, according to the previously published method. Liu et al., Bioorg. Med. Chem. Lett. 25(3): 721-727 (2015).

[4] = target: recombinant human GALK1 (Homo sapiens, UniProt P51570); experiment: hGALK1 biochemical activity assay (Kinase-Glo Plus, ATP depletion)
Chain of recombinant human GALK1 (P51570 whole entry): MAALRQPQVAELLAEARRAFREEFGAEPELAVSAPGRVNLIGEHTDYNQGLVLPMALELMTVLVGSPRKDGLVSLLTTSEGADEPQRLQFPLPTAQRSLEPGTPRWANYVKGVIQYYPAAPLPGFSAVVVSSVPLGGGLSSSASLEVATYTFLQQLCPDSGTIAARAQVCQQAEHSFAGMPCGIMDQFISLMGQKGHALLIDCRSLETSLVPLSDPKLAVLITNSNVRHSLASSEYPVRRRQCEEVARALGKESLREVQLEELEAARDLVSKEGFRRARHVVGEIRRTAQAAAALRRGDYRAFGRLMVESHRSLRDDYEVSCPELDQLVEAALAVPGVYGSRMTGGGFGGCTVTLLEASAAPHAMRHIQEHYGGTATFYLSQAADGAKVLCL
Summary of the method: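 Turnover is measured as ATP depletion by Kinase-Glo Plus luminescence after a 1 h room-temperature reaction. Compounds span 11 concentrations, 57.4 μM–0.97 nM, in final 20 mM HEPES pH 8.0 with 5 mM MgCl2. The substrate solution held 35 μM ATP; the added solution held 5 nM human or mouse GALK1 and 100 μM galactose.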

[5] = target: recombinant mouse GALK1 (Mus musculus, UniProt Q9R0N0); experiment: mGALK1 biochemical activity assay (Kinase-Glo Plus, ATP depletion)
Chain of recombinant mouse GALK1 (Q9R0N0 whole entry): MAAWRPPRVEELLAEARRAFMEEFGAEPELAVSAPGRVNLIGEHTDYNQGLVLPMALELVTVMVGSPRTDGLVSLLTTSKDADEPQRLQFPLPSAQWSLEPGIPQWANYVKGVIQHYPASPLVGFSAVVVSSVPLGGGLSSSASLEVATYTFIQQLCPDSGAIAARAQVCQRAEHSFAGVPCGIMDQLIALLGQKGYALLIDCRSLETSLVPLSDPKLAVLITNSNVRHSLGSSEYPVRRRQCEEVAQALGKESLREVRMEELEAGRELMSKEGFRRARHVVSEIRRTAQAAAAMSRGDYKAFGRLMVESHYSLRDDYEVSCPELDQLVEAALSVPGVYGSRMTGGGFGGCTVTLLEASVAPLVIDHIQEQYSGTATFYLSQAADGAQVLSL
Summary of the method: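 Recombinant GALK1 (5 nM) with 100 μM galactose; GALK1 turnover read as ATP depletion by Kinase-Glo Plus luminescence. Reaction ran 1 h at room temperature before detection reagent was added.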

[6] = aqueous kinetic solubility
[7] = ADME P: PAMPA permeability (class), Tables 17-19, class probably colour-coded, colour lost
[8] = Tables 18-19, read-out: Max Response (%)
[9] = Tables 18-20 and text of Example 12
[10] = Tables 2-15, 35 μM ATP, 100 μM galactose, 1 h, bracketed figure after some values (e.g. −1.2) is undefined and not reported, read-out: hGALK IC50
[11] = recombinant human GALK1, Kinase-Glo Plus ATP depletion, read-out: hGALK
[12] = Tables 2-15, 35 μM ATP, 100 μM galactose, 1 h, bracketed figure after some values is undefined and not reported, read-out: mGALK IC50
[13] = recombinant mouse GALK1, Kinase-Glo Plus ATP depletion, read-out: mGALK
[14] = Tables 18-19 and text of Example 12

T1 sequence (P51570 whole entry K252A/E253A): as the sequence (P51570 whole entry) above, with K252A, E253A counted along it

Row | Compound | Metab. Stabil. (m) ([1]; microsomal half-life) | half-life [1] [min] | Papp [2, 7] [×10⁻⁶ cm/s] | change of potency versus parent compound (in words) [3] | Emax [3, 8] [%] | IC50 [3, 9] [µM] | IC50 [4, 10] [µM] | IC50 [4, 11] [µM] | IC50 [5, 12] [µM] | IC50 [5, 13] [µM] | Sol. [6] [µg/mL] | Papp ([2]; Perm. (1 × 10^−6 cm/sec)) [×10⁻⁶ cm/s] | fold improvement of potency (IC50) versus parent compound ([3]; increase in potency relative to the unsubstituted parent) [fold] | IC50 [3, 14] [µM] | Metab. Stabil. (m) ([1]; microsomal stability half-life) | Perm. (1 × 10^−6 cm/sec) [2] | Emax ([3]; 1 h, Table 17, read-out: Efficacy) [%] | IC50 ([3]; Table 17, amide group optimization, no unit in table) [µM] | Sol. ([6]; aqueous kinetic solubility) [µg/mL]
1 | CC1=C(C(=O)Nc2cc(C(=O)O)ccn2)C(c2ccc(C)cc2Cl)N=C(Nc2nc3ccc(F)cc3o2)N1 (racemic) [Compound 50, 2-(4-(2-chloro-4-methylphenyl)-2-((6-fluorobenzo[d]oxazol-2-yl)amino)-6-methyl-1,4-dihydropyrimidine-5-carboxamido)isonicotinic acid] | >30 | < 10 | < 10 | – | 100 | 0.136 | 0.39 | 0.39 | 3.06 | 3.06 | 2.8 | < 1.5 | 2 | – | – | – | – | – | –
2 | CC1=C(C(=O)NCc2cnn(C)c2)C(c2ccc(C)cc2Cl)N=C(Nc2nc3cccc(N)c3o2)N1 (racemic) [Compound 83, 2-((7-aminobenzo[d]oxazol-2-yl)amino)-4-(2-chloro-4-methylphenyl)-6-methyl-N-((1-methyl-1H-pyrazol-4-yl)methyl)-1,4-dihydropyrimidine-5-carboxamide] | 14.13 | – | – | – | – | 0.047 | 0.22 | 0.22 | 2.17 | 2.17 | 4.47 | 25.3 | – | – | – | – | – | – | –
3 | CC1=C(C(=O)Nc2cc(C(=O)O)ccn2)C(c2cccc(F)c2Cl)N=C(Nc2nc3ccc(F)cc3o2)N1 (stereo not shown) [Compound 48, 2-(4-(2-chloro-3-fluorophenyl)-2-((6-fluorobenzo[d]oxazol-2-yl)amino)-6-methyl-1,4-dihydropyrimidine-5-carboxamido)isonicotinic acid] | – | < 10 | < 10 | compromised the potency | 100 | – | 4.85 | 4.85 | 15.3 | 15.3 | – | – | – | 1.8 | – | – | – | – | –
4 | CC1=C(C(=O)Nc2ncc(C(=O)O)s2)C(c2ccccc2Cl)N=C(Nc2nc3ccccc3o2)N1 (stereo not shown) [Compound 199, 2-(2-(benzo[d]oxazol-2-ylamino)-4-(2-chlorophenyl)-6-methyl-1,4-dihydropyrimidine-5-carboxamido)thiazole-5-carboxylic acid] | – | < 10 | < 10 | – | – | – | 1.72 | 1.72 | – | – | – | – | – | – | >30 | <1 1 × 10^−6 cm/sec | 91 | 1.7 | >75

The next lines start with the values.

Row | Metab. Stabil. (m) ([1]; microsomal half-life) | half-life [1] [min] | Papp [2, 7] [×10⁻⁶ cm/s] | change of potency versus parent compound (in words) [3] | Emax [3, 8] [%] | IC50 [3, 9] [µM] | IC50 [4, 10] [µM] | IC50 [4, 11] [µM] | IC50 [5, 12] [µM] | IC50 [5, 13] [µM] | Sol. [6] [µg/mL] | Papp ([2]; Perm. (1 × 10^−6 cm/sec)) [×10⁻⁶ cm/s] | fold improvement of potency (IC50) versus parent compound ([3]; increase in potency relative to the unsubstituted parent) [fold] | IC50 [3, 14] [µM] | Metab. Stabil. (m) ([1]; microsomal stability half-life) | Perm. (1 × 10^−6 cm/sec) [2] | Emax ([3]; 1 h, Table 17, read-out: Efficacy) [%] | IC50 ([3]; Table 17, amide group optimization, no unit in table) [µM] | Sol. ([6]; aqueous kinetic solubility) [µg/mL] | Compound
5 | >30 | < 10 | < 10 | little effect | 100 | 0.3 | 0.43 | 0.43 | 3.06 | 3.06 | 8.3 | – | – | – | – | – | – | – | – | COc1ccc(C2N=C(Nc3nc4ccc(F)cc4o3)NC(C)=C2C(=O)Nc2cc(C(=O)O)ccn2)c(Cl)c1 (racemic) [Compound 46, 2-(4-(2-chloro-4-methoxyphenyl)-2-((6-fluorobenzo[d]oxazol-2-yl)amino)-6-methyl-1,4-dihydropyrimidine-5-carboxamido)isonicotinic acid]
6 | – | – | – | – | 100 | – | – | 3.85 | 21.7 | 21.7 | – | – | – | 3.3 | – | – | – | – | – | CC1=C(C(=O)Nc2cc(C(=O)O)ccn2)C(c2ccccc2Cl)N=C(Nc2nc3c(F)cccc3o2)N1 (stereo not shown) [Compound 8, 2-(4-(2-chlorophenyl)-6-methyl-2-((4-fluorobenzo[d]oxazol-2-yl)amino)-1,4-dihydropyrimidine-5-carboxamido)isonicotinic acid]
7 | – | < 10 | < 10 | – | 100 | – | 3.43 | – | 17.2 | 17.2 | – | – | – | 3.6 | – | – | – | – | – | CC1=C(C(=O)Nc2cc(C(=O)O)ccn2)C(c2ccccc2Cl)N=C(Nc2nc3cc(F)ccc3o2)N1 (stereo not shown) [Compound 13, 2-(4-(2-chlorophenyl)-2-((5-fluorobenzo[d]oxazol-2-yl)amino)-6-methyl-1,4-dihydropyrimidine-5-carboxamido)isonicotinic acid]

— patent publication US20230158025A1 (UNIVERSITY OF UTAH RESEARCH FOUNDATION, priority 2020, published 2023)
